# According to ChEMBL document CHEMBL4376863, “Identification of Selective Inhibitors of Plasmodium N-Myristoyltransferase by High-Throughput Screening” (J Med Chem, 2020):
# Calls of active or inactive are those of the source. No cut-off for these calls is given here.
# Assays:
# Plasmodium falciparum = assay: Antiplasmodial activity against asexual blood stage Plasmodium falciparum 3D7A MR4 infected in human RBCs assessed as decrease in [3H]-hypoxanthine incorporation pretreated for 24 hrs in presence of hypoxanthine followed by [3H]-hypoxanthine addition after 24 hrs by microbeta scintillation counter analysis; format: functional, organism-based
# [1] = target: T1, Glycylpeptide N-tetradecanoyltransferase (Plasmodium falciparum (isolate 3D7)) (UniProt Q8ILW6); assay: Binding affinity to Plasmodium falciparum NMT (27 to 410 residues) expressed in Escherichia coli Rosetta (DE3) assessed as change in melting temperature at 100 uM in presence of 100 uM myristoyl-CoA by Sypro orange dye based differential scanning fluorimetry (reference value: 0 degreeC)
# T1 sequence (whole entry): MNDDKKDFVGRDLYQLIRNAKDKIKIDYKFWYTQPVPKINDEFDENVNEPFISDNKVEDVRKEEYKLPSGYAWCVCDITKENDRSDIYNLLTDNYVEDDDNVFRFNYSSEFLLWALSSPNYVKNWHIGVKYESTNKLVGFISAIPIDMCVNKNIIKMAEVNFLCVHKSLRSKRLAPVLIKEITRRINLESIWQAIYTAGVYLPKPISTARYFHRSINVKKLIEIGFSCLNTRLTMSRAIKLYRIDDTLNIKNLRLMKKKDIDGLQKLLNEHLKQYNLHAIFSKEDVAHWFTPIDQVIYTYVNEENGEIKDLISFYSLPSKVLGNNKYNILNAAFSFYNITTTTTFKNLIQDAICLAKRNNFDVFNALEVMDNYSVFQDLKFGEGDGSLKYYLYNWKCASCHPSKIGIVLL
# [2] = target: T1, Glycylpeptide N-tetradecanoyltransferase (Plasmodium falciparum (isolate 3D7)); assay: Binding affinity to Plasmodium falciparum NMT (27 to 410 residues) expressed in Escherichia coli Rosetta (DE3) assessed as change in melting temperature at 100 uM in absence of 100 uM myristoyl-CoA by Sypro orange dye based differential scanning fluorimetry (reference value: 0 degreeC)
# [3] = target: T1, Glycylpeptide N-tetradecanoyltransferase (Plasmodium falciparum (isolate 3D7)); assay: Competitive inhibition of Plasmodium falciparum NMT (27 to 410 residues) expressed in Escherichia coli Rosetta (DE3) using H-GLYVSRLFNRLFQKK-NH2 as substrate
SMILES,Activity (Plasmodium falciparum),ΔTm [1] [°C],ΔTm [2] [°C],inhibition [3]
Cc1ccc(-n2nc(C(=O)N3CCCN(C)CC3)c3ccccc32)cc1,inactive,6.17,-0.02,Active
Clc1cccc(O[C@H]2C[C@H](NCc3cnc4[nH]ccc4c3)C2)c1Cl,inactive,6.57,-2.91,Active
O=C(c1cccc(NCc2cc(-c3ccc(Cl)cc3)c[nH]c2=O)c1)N1CCOCC1,inactive,2.16,-0.3,Active
CCN(c1ccccc1)S(=O)(=O)c1ccc(Cl)c(C(=O)Nc2ccccc2N2CCCC2=O)c1,inactive,7.33,1.42,
O=C(c1ccc2c(c1)N(Cc1ccccc1)C(=O)c1ccccc1[S+]2[O-])N1CCCCC1 (stereo not drawn),inactive,8.05,1.84,
